Series [1] can be described thus: logP determination by HPLC on reversed-phase column (C 18), EEC Directive 79/831 Annex V.A8. The series is classed as physicochemical. To be noted: for chromatographic logP: reversed-phase HPLC column (C 18). The procedure: The logP values given in the Tables and Preparation Examples above are determined in accordance with EEC Directive 79/831 Annex V.A8 by HPLC (High Performance Liquid Chromatography) on a reversed-phase column (C 18). Temperature: 43° C. The determination is carried out in the acidic range at pH 2.3 using the mobile phases 0.1% aqueous phosphoric acid and acetonitrile; linear gradient from 10% acetonitrile to 90% acetonitrile. The determination is carried out in the neutral range at pH 7.5 using the mobile phases 0.01-molar aqueous phosphate buffer solution and acetonitrile; linear gradient from 10% acetonitrile to 90% acetonitrile. Calibration is carried out using unbranched alkan-2-ones (having 3 to 16 carbon atoms), with known logP values (determination of the logP values by the retention times using linear interpolation between two successive alkanones).

The next series relates to Sphaerotheca fuliginea. Description: Sphaerotheca Test (cucumber)/protective. The series is classed as in vivo. To be noted: protective spray, application rate 100 ppm, evaluation 7 days after inoculation. The procedure: Sphaerotheca Test (Cucumber)/Protective
To produce a suitable preparation of active compound, 1 part by weight of active compound is mixed with the stated amounts of solvents and emulsifier, and the concentrate is diluted with water to the desired concentration.
To test for protective activity, young plants are sprayed with the active compound preparation at the stated application rate. After the spray coating has dried on, the plants are inoculated with an aqueous spore suspension of Sphaerotheca fuliginea. The plants are then placed in a greenhouse at about 23° C. and a relative atmospheric humidity of about 70%.
Evaluation is carried out 7 days after the inoculation. 0% means an efficacy which corresponds to that of the control, whereas an efficacy of 100% means that no infection is observed.

The subject of a further series is Venturia inaequalis. Description: Venturia Test (apple)/protective. The series is classed as in vivo. To be noted: protective spray, application rate 100 ppm, evaluation 10 days after inoculation. Here is the method:
Venturia Test (Apple)/Protective
(§1) To produce a suitable preparation of active compound, 1 part by weight of active compound is mixed with the stated amounts of solvents and emulsifier and the concentrate is diluted with water to the desired concentration. To test for protective activity, young plants are sprayed with the active compound preparation at the stated application rates. After the spray coating has dried on, the plants are inoculated with an aqueous conidia suspension of the apple scab pathogen Venturia inaequalis and then remain in an incubation cabin at about 20° C. and 100% relative atmospheric humidity for 1 day. The plants are then placed in a greenhouse at about 21° C. and a relative atmospheric humidity of about 90%. Evaluation is carried out 10 days after the inoculation. 0% means an efficacy which corresponds to that of the control, whereas an efficacy of 100% means that no infection is observed.

A further series relates to Botrytis cinerea. Briefly: Botrytis Test (bean)/protective. Particulars: protective spray, application rate 250 ppm, evaluation 2 days after inoculation. Format: in vivo. Here is the method:
Botrytis Test (Bean)/Protective
To produce a suitable preparation of active compound, 1 part by weight of active compound is mixed with the stated amounts of solvents and emulsifier and the concentrate is diluted with water to the desired concentration. To test for protective activity, young plants are sprayed with the active compound preparation at the stated application rate. After the spray coating has dried on, 2 small pieces of agar colonized by Botrytis cinerea are placed onto each leaf. The inoculated plants are placed in a dark chamber at about 20° C. and 100% relative atmospheric humidity. The size of the infected areas on the leaves is evaluated 2 days after the inoculation. 0% means an efficacy which corresponds to that of the control, whereas an efficacy of 100% means that no infection is observed.

A further series deals with Uromyces appendiculatus. Briefly: Uromyces Test (bean)/protective. The series is classed as in vivo. To be noted: protective spray, application rate 100 ppm, evaluation 10 days after inoculation. The procedure:
Uromyces Test (Bean)/Protective
as §1, with “rate.” for “rates.”, “spore” for “conidia”, “bean rust” for “apple scab”, “Uromyces appendiculatus” for “Venturia inaequalis”, “cabinet” for “cabin”

For another series, the system named is Alternaria solani. Briefly: Alternaria Test (tomato)/protective. The series is classed as in vivo. To be noted: protective spray, application rate 500 ppm, evaluation 7 days after inoculation. Here is the method: Alternaria Test (Tomato)/Protective
To produce a suitable preparation of active compound, 1 part by weight of active compound is mixed with the stated amounts of solvent and emulsifier and the concentrate is diluted with water to the desired concentration. To test for protective activity, young tomato plants are sprayed with the active compound preparation at the stated application rate. 1 day after the treatment, the plants are inoculated with a spore suspension of Alternaria solani and then remain at 100% relative atmospheric humidity and 20° C. for 24 h. The plants then remain at 96% relative atmospheric humidity and a temperature of 20° C. Evaluation is carried out 7 days after the inoculation. 0% means an efficacy which corresponds to that of the control, whereas an efficacy of 100% means that no infection is observed.

A further series deals with Pyrenophora teres. Description: Pyrenophora teres Test (barley)/protective. The series is classed as in vivo. To be noted: protective spray, application rate 1000 ppm, evaluation 8 days after inoculation. Here is the method: Pyrenophora teres Test (Barley)/Protective
(§2) To produce a suitable preparation of active compound, 1 part by weight of active compound is mixed with the stated amounts of solvent and emulsifier and the concentrate is diluted with water to the desired concentration. To test for protective activity, young plants are sprayed with the active compound preparation at the stated application rate. After the spray coating has dried on, the plants are sprayed with a conidia suspension of Pyrenophora teres. The plants remain in an incubation cabin at 20° C. and 100% relative atmospheric humidity for 48 hours. The plants are then placed in a greenhouse at a temperature of about 20° C. and a relative atmospheric humidity of about 80%. Evaluation is carried out 8 days after the inoculation. 0% means an efficacy which corresponds to that of the control, whereas an efficacy of 100% means that no infection is observed.

The next series relates to Puccinia recondita. Description: Puccinia Test (wheat)/protective. The series is classed as in vivo. Particulars: protective spray, application rate 1000 ppm, evaluation 10 days after inoculation. Here is the method:
Puccinia Test (Wheat)/Protective
as §2, with “of Puccinia recondita.” for “of Pyrenophora teres.”, “about 80% to promote the development of rust pustules.” for “about 80%.”, “out 10” for “out 8”

The mark [2] stands for this setting: pH 2.3, 0.1% aqueous phosphoric acid/acetonitrile gradient, 43° C.

As for `CCCCCCCCCCCCSC(=Nc1ccccc1C1CC2CCC1C2)c1cn(C)nc1C(F)F` (stereo not drawn) [Compound 13], the “logP (pH 2.3)” value in series [1] (setting [2]) is recorded as 7.36.
The term chromatographic logP denotes a lipophilicity value derived from retention on a column. The compound `Cn1cc(C(=S)Nc2ccccc2C2CC3CCC2C3)c(C(F)F)n1` (stereo not drawn) [II-7, N-(2-bicyclo[2.2.1]hept-2-ylphenyl)-3-(difluoromethyl)-1-methyl-1H-pyrazole-4-thiocarboxamide] yielded a chromatographic logP in series [1] (setting [2]) of 3.66.
As to `COCCSC(=Nc1ccccc1C1CC2CCC1C2)c1cn(C)nc1C(F)F` (stereo not drawn) [Compound 3], in series [1] (setting [2]), the “logP (pH 2.3)” value is recorded as 4.62.
`Cn1cc(C(=Nc2ccccc2C2CC3CCC2C3)SCCO)c(C(F)F)n1` (stereo not drawn) [Compound 10]: the “logP (pH 2.3)” value in series [1] (pH 2.3) is listed as 3.23. The Efficacy in % in the series with Sphaerotheca fuliginea, in the series with Venturia inaequalis, with Botrytis cinerea, in the series on Uromyces appendiculatus and in the series with Alternaria solani was 100% in each case.
Regarding `C#CCSC(=Nc1ccccc1C1CC2CCC1C2)c1cn(C)nc1C(F)F` (stereo not drawn) [Compound 8], the “logP (pH 2.3)” value in series [1] (setting [2]) is 4.65.
With `Cc1nn(C)c(F)c1C(=S)Nc1ccccc1C(C)CC(C)(C)C` (stereo not drawn) [II-1], in series [1] (pH 7.5, 0.01-molar aqueous phosphate buffer/acetonitrile gradient, 43° C.), the “logP (at pH 7.5)” value is 3.70 (at pH 7.5).
In the case of `Cn1cc(C(=Nc2ccccc2C2CC3CCC2C3)SCSC#N)c(C(F)F)n1` (stereo not drawn) [Compound 7], the “logP (pH 2.3)” value in series [1] (setting [2]) is reported as 4.55.
On to `Cn1cc(C(=NNc2ccccc2)Nc2ccccc2C2CC3CCC2C3)c(C(F)F)n1` (stereo not drawn) [II-8, N-(2-bicyclo[2.2.1]hept-2-ylphenyl)-3-(difluoromethyl)-1-methyl-N′-phenyl-1H-pyrazole-4-carbohydrazonamide], for which the chromatographic logP in series [1] (setting [2]) worked out at 3.66.
Take `Cn1cc(C(=Nc2ccccc2C2CC3CCC2C3)SCC#N)c(C(F)F)n1` (stereo not drawn) [Compound 6]: the “logP (pH 2.3)” value in series [1] (setting [2]) is reported as 4.15.
For `Cn1cc(C(=NO)Nc2ccccc2C2CC3CCC2C3)c(C(F)F)n1` (stereo not drawn) [II-9], the “logP (pH 2.3)” value in series [1] (setting [2]) is 2.88.
On the same count and under the same terms, then `Cn1cc(C(=Nc2ccccc2C2CC3CCC2C3)SCc2ccc(Cl)nc2)c(C(F)F)n1` (stereo not drawn) [Compound 12], with 4.95.
In the case of `Cn1cc(C(=Nc2ccccc2C2CC3CCC2C3)SC(=O)C2(C)CCCCC2)c(C(F)F)n1` (stereo not drawn) [Compound 20], in series [1] (pH 2.3), the “logP (pH 2.3)” value amounted to 6.66. The Efficacy in % in the series with Sphaerotheca fuliginea was 100%; with Venturia inaequalis it was 100%; in the series with Uromyces appendiculatus it was 99%; in the series with Alternaria solani, 80%; with Pyrenophora teres it was 100%; with Puccinia recondita it was 100%.
As for `CCC1(C(=O)SC(=Nc2ccccc2C2CC3CCC2C3)c2cn(C)nc2C(F)F)C(C)C1(Cl)Cl` (stereo not drawn) [Compound 19], in series [1] (pH 2.3), the “logP (pH 2.3)” value came to 6.52. Besides, the Efficacy in % stood at 99% in the series on Venturia inaequalis; 96% in the series on Uromyces appendiculatus; 90% in the series on Alternaria solani; 92% in the series on Pyrenophora teres; 93% in the series on Puccinia recondita.
`Cn1cc(C(=Nc2ccccc2C2CC3CCC2C3)SC(=O)C(C)(C)C)c(C(F)F)n1` (stereo not drawn) [Compound 18]: the “logP (pH 2.3)” value in series [1] (setting [2]) is 5.81.
`CCOC(=O)CSC(=Nc1ccccc1C1CC2CCC1C2)c1cn(C)nc1C(F)F` (stereo not drawn) [Compound 11]: in series [1] (pH 2.3), the “logP (pH 2.3)” value is 4.66. Besides, the Efficacy in % in the series with Sphaerotheca fuliginea is on record as 100%; in the series on Venturia inaequalis, 100%; with Botrytis cinerea, 100%; in the series on Uromyces appendiculatus, 100%; in the series on Alternaria solani, 95%; with Pyrenophora teres, 100%. Besides, the Efficacy in % in the series with Puccinia recondita was found to be 100%.
In series [1] (setting [2]), `CS/C(=N\c1ccccc1C1CC2CCC1C2)c1cn(C)nc1C(F)F` (stereo not drawn) [Compound 9, methyl N-(2-bicyclo[2.2.1]hept-2-ylphenyl)-3-(difluoromethyl)-1-methyl-1H-pyrazole-4-carbimidothioate] returned a chromatographic logP of 4.75.
